Laboratory results as given in patent US4882348A, “2-(aminoalkylthio)imidazoles as dopamine-β-hydroxylase inhibitors” (SmithKline Beckman Corporation, priority 1987, dated 1989).

Tests used:
DBH = biological target: T1, DBH (Bos taurus, UniProt P15101); assay: in vitro DBH inhibition, conversion of tyramine to octopamine; assay type: biochemical; conditions: octopamine assayed as p-hydroxybenzaldehyde after sodium periodate oxidation, absorbance at 330 nm; read-out: IC50 (molar concentration of compound at which DBH activity was halved)
T1 sequence (P15101 1-610): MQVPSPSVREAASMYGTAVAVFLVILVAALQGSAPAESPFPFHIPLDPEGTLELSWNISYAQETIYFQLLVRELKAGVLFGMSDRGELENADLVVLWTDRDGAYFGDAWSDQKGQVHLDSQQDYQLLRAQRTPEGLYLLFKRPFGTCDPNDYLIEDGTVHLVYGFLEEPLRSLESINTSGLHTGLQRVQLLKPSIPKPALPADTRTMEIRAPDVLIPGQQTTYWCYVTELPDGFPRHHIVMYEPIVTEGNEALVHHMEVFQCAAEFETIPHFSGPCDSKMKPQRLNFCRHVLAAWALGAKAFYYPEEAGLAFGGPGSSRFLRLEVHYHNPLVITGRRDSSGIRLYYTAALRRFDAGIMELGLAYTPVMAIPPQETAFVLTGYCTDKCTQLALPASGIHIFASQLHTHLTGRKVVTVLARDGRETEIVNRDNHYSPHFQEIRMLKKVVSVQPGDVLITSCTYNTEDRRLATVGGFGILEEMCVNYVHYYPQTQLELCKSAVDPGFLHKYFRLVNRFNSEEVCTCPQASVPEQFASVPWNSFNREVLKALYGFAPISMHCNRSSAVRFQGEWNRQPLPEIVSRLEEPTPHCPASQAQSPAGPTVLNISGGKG
Experimental: Listed in Table I are Formula (I) compounds that were tested for in vitro DBH inhibition by a standard procedure for assaying conversion of tyramine to octopamine in the presence of DBH. J. J. Pisano, et al., Biochim. Biophys. 43, 566-568 (1960). Octopamine was assayed following sodium periodate oxidation to p-hydroxybenzaldehyde by measuring spectrophotometric absorbance at 330 nm. Inhibition is given in molar concentration of compound at which DBH activity was halved (IC50).

[1] = system: Spontaneously hypertensive rats; assay: mean arterial blood pressure in spontaneously hypertensive rats; assay type: in vivo; conditions: 50 mg/kg intraperitoneally
Experimental: Spontaneously hypertensive rats were treated with 2-(2-aminoethylthio) 1-(3,5 difluorobenzyl)imidazole at a dose of 50 mg/kg intraperitoneally, and mean arterial blood pressure was monitored for four hours using an indwelling cannula in the femoral artery. […] The maximal blood pressure reduction was approximately 10 mmHg.

## Cl.Cl.NCCSc1nccn1Cc1cc(F)cc(F)c1 [2-(2-Aminoethylthio)-1-(3,5-difluorobenzyl)imidazole Dihydrochloride]
DBH
  IC50: 1.8 mM
[1]; mean arterial blood pressure, femoral artery cannula
  maximal blood pressure reduction: approximately 10 mmHg
[1]; monitored for four hours
  blood pressure reduction compared to vehicle treated controls: significant blood pressure reductions
  time of lowest blood pressures after administration: 3 to 4 h
[1]; vs vehicle treated controls
  time to significant blood pressure reductions: ≤ 30 min
